Measurements from the NIST ThermoML archive (doi:10.1016/j.jct.2014.01.020).

Assay: molar heat capacity at constant pressure; xn = mol fraction of the nth substance listed
Details: Liquid, Flow calorimetry

C1CCCCC1 [cyclohexane] + CCCCO
molar heat capacity at constant pressure [J/K/mol]
Details | x2 = 0 | x2 = 0.1013 | x2 = 0.2003 | x2 = 0.3002 | x2 = 0.4013 | x2 = 0.4997 | x2 = 0.6002 | x2 = 0.6999 | x2 = 0.7998 | x2 = 0.8999
293.15 K, 100 kPa | 154.7 | 164.6 | 166.7 | 168.6 | 170.9 | 171.2 | 171.4 | 172.1 | 172.2 | 172.8
293.15 K, 5000 kPa | 153.8 | 163.3 | 165.3 | 167.1 | 169.5 | 169.7 | 170.2 | 170.6 | 171 | 171.9
293.15 K, 10000 kPa | 152.5 | 161.2 | 163.5 | 165.4 | 167.7 | 168.2 | 168.6 | 169.4 | 169.5 | 170.4
293.15 K, 15000 kPa | 150.5 | 159.1 | 161 | 163.4 | 165.5 | 165.9 | 166.3 | 168 | 168.3 | 169.1
293.15 K, 20000 kPa | 149.7 | 157.5 | 159.3 | 161.7 | 164.4 | 164.9 | 164.8 | 167.1 | 167.1 | 167.7
293.15 K, 25000 kPa | 147.7 | 155.9 | 157.8 | 160.3 | 162.8 | 163.1 | 163.4 | 165.6 | 166 | 166.6
313.15 K, 100 kPa | – | 179.7 | 182.8 | 185.3 | 187.8 | 188.1 | 189.4 | 191.3 | 191.4 | 191.1
313.15 K, 5000 kPa | – | 177.4 | 180.4 | 183.2 | 186.1 | 186.5 | 187.4 | 189.1 | 189.9 | 189.3
313.15 K, 10000 kPa | – | 175.2 | 178.8 | 181.1 | 183.7 | 184.5 | 185.4 | 187.4 | 188.9 | 187.3
313.15 K, 15000 kPa | – | 172.9 | 175.8 | 178.9 | 181.6 | 182.7 | 183.8 | 185.5 | 187.2 | 186.5
313.15 K, 20000 kPa | – | 170.5 | 173.8 | 177 | 180.4 | 180.7 | 181.4 | 184.3 | 185.4 | 184.6
313.15 K, 25000 kPa | 154.6 | 168.7 | 171.6 | 175 | 177.8 | 179.3 | 179.7 | 182.3 | 183.9 | 183.1
